Measurements as given in ChEMBL document CHEMBL1201862, “PubChem BioAssay data set” (2004).
The source made the active and inactive calls.

Assays:
[1] = target: T1, Rac GTPase-activating protein 1 (Homo sapiens, UniProt Q9H0H5); assay: MgcRacGAP GTPase-activating activity inhibitors, confirmation, biochemical, ADP Hunter fluorescence, primary and confirmatory (AID 624330); assay type: functional
T1 sequence (Q9H0H5 whole entry): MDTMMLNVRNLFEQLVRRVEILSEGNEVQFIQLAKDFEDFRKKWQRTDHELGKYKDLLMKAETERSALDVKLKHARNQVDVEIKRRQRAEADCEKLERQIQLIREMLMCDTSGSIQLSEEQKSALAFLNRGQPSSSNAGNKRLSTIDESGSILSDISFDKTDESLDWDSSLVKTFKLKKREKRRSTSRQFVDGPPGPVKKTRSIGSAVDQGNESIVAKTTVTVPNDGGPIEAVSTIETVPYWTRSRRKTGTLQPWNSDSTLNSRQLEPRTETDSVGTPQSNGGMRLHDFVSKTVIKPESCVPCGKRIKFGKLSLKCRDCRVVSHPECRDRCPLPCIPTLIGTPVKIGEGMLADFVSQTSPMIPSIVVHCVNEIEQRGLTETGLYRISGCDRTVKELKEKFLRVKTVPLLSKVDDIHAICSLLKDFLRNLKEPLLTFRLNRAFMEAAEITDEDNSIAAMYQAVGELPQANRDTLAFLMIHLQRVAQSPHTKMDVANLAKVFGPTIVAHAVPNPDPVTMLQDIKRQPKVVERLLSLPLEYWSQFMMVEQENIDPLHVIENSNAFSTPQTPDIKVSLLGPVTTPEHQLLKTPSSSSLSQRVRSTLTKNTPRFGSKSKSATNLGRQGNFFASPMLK

[2] = inhibitors of firefly luciferase expression or activity, dose response, H4 neuroglioma cells, luminescence (AID 1990); assay type: functional, cell-based
[3] = inhibitors of SNCA 5'UTR-driven reporter translation, confirmation, H4 neuroglioma cells, luminescence (AID 1988); assay type: functional, cell-based
[4] = Luminescence Cell-Based Dose Response HTS to Identify Inhibitors of 5'UTR Stem-Loop Driven Prion Protein mRNA Translation in H4 Neuroglioblastoma Cells. [Related pubchem assays: 1827 (Project Summary), 1813 (Primary HTS)]; assay type: functional
[5] = NIH-3T3 fibroblast cytotoxicity, dose response, cytotoxicity control, cell-based, fluorescence, Alamar Blue, secondary assay (AID 2327); assay type: functional;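 also: NIH-3T3 mouse fibroblasts cultured with fluconazole at 8 µg/mL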
[6] = growth suppression of PTEN-null colon cells, dose response, cell-based, HCT116 PTEN knockout (AID 1047); assay type: functional;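 also: HCT116 colon tumor cells with PTEN knocked out; cells exposed to compound for 60 hours before readout; potency for loss of cell viability measured by luminescence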
[7] = growth suppression of beta-catenin-knockout colon cells, dose response, cell-based, HCT116, human colon tumor (AID 1045); assay type: functional;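 also: HCT116 colon tumor cells with beta catenin knocked out; cells exposed to compound for 60 hours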
[8] = HEp-2 cell cytotoxicity, dose response, cytotoxicity control for RSV inhibitor project, HTS (AID 2410); assay type: functional; conditions: human respiratory syncytial virus
Cytochrome P450 2C9 = Cytochrome P450 2C9 (Homo sapiens, UniProt P11712)
Cytochrome P450 2C9, sequence (P11712 whole entry): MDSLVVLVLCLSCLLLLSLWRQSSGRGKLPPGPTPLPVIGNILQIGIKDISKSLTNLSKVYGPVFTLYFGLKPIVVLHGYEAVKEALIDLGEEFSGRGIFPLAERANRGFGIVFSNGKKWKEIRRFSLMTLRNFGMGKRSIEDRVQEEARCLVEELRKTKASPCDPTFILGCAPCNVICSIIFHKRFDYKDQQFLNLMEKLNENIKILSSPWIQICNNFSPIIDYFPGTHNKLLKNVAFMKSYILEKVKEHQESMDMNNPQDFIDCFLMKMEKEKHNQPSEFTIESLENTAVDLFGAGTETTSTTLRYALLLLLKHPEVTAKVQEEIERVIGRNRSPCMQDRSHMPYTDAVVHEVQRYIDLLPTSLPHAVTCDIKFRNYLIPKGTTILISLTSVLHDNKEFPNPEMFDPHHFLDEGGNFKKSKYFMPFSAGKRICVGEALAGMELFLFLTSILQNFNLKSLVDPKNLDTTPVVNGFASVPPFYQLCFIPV

[9] = target: T2, Calpain-2 catalytic subunit (Sus scrofa, UniProt P43367); assay: pig calpain II inhibitor potency, dose response, biochemical, fluorogenic peptide substrate (AID 1420); assay type: functional
T2 sequence (P43367 whole entry): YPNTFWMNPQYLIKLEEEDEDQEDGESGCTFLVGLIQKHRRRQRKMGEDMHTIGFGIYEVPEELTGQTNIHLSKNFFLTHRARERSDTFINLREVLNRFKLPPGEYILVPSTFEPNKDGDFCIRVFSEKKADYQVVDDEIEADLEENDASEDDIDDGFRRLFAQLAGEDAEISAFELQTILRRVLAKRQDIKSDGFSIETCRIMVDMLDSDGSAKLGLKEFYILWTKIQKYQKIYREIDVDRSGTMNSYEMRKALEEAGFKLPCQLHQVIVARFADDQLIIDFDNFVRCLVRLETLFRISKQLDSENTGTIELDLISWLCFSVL

[10] = tested on: Streptococcus sp. 'group A'; assay: growth inhibition of control SK(-) GAS strain, dose response, counter-screen for streptokinase expression inhibitor project, luminescence, kanamycin, BacTiterGlo, confirmation (AID 1900); assay type: functional, organism-based
[11] = Luminescence Cell-Based Dose Retest to Confirm Inhibitors of Cancer Stem Cells. [Related pubchem assays (depositor defined):AID2717, AID2721]; assay type: functional; conditions: Homo sapiens
Streptococcus = assay: Group A Streptococcus viability loss, dose response, counter-screen for streptokinase expression inhibitor project, luminescence, BacTiterGlo (AID 1915); assay type: functional, organism-based;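 also: potency for reduction of bacterial viability or growth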
[12] = cytotoxicity toward NIH3T3 fibroblasts, dose response, counter-screen, cell-based, ATP luminescence, mouse fibroblasts (AID 2010); assay type: functional;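 also: cells exposed to compound for about 90 hours before reading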
[13] = inhibitors of intracellular T. cruzi replication, confirmation, NIH3T3 host cells, beta-gal luminescence (AID 2044); assay type: functional, cell-based;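 also: intracellular parasites grown in NIH/3T3 mouse fibroblasts as host cells; luminescent beta-galactosidase reporter signal from transgenic T. cruzi replicating inside host cells; inhibitors lower the luminescence signal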
INS1 = assay: beta cell apoptosis inhibitors, cytokine rescue, dose response, luminescence, retest (AID 449756); assay type: functional, cell-based; conditions: Rattus norvegicus;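 also: cell death triggered by IL-1 beta plus TNF-alpha plus IFN-gamma mixture; protective hits raise ATP signal compared with cytokine alone wells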

With COc1cc(/C=N/NC(=O)c2ccc3c(c2)OCO3)ccc1O the IC50 [1] was 28.5 µM (active).

In the case of CCOC(=O)c1c(NC(=O)C2=C(C)N=C(S)NC2c2ccc(F)cc2)sc(C)c1C (stereo not given), the EC50 [2] is reported as > 120 µM (not active), the EC50 [3] is reported as > 120 µM (not active) and the EC50 [4] is reported as > 120 µM (not active).

In the case of COc1cc(CNc2ncc(-c3ccc(Br)cc3)n2C)cc(OC)c1O, the IC50 [1] is reported as 52 µM (active).

In the case of CCc1ccc(/C(C)=N\Nc2ccc([N+](=O)[O-])cc2)cc1, the EC50 [5] is reported as > 160 µM (inactive).

In the case of CC(=O)NC(=S)Nc1ccc(-c2nc3ccc(C)cc3s2)cc1, the EC50 [6] is reported as 50 µM (active) and the EC50 [7] is reported as 112 µM (active).

With CC(=O)O/N=C/c1c(NCc2ccccc2)nc2c(C)cccn2c1=O the CC50 [8] was 31.1 µM (active).

For COc1cc(C=O)ccc1OCCCOc1ccccc1C(=O)O, the AC50 (Cytochrome P450 2C9) was 17.8 µM (inconclusive).

With CC1CCCCN1C(=O)c1cc(-c2ccc(Cl)c(Cl)c2)on1 (stereo not given) the IC50 [9] was 3.9 µM (not active).

For C=CCn1c(S)nnc1-c1cc2cccc(OC)c2o1, the CC50 [8] was 21.4 µM (active).

In the case of Oc1ccc(NCc2ccccc2OCc2ccccc2F)cc1, the IC50 [1] is reported as 71.4 µM (active).

For Oc1ccc(C=NNc2nc3ccccc3s2)c(O)c1, the IC50 [1] was 88.4 µM (active).

With COc1ccc(NC(=O)C2CCCN(S(=O)(=O)c3cccc4cccnc34)C2)c(OC)c1 (stereo not given) the IC50 [9] was 4.57 µM (not active).

With COc1ccc(CN2CCN(Cc3c[nH]c4ccccc34)CC2)c(OC)c1 the IC50 [1] was 104 µM (active).

For O=[N+]([O-])C(=C1Nc2ccccc2N1)C(Cl)=C(Cl)Cl, the IC50 [9] was 27.8 µM (not active).

With CCc1ccc(-c2cc(C(=O)NCCCn3ccnc3)c3ccccc3n2)s1 the CC50 [8] was 28.4 µM (active).

With Cc1c2c(nc3ccccc13)CCC(C)C2 (stereo not given) the CC50 [8] was > 50 µM (active).

In the case of CS(=O)(=O)N1CCc2cc(NC(=O)c3ccc(Cl)cc3Cl)ccc21, the IC50 [9] is reported as 13.7 µM (not active).

For CN(C1CCCCC1)S(=O)(=O)c1ccc(S(=O)(=O)N2CCCC2)cc1, the IC50 [9] was 10.4 µM (not active).

For Cc1ccc(C)c(OCC(O)CN2CCC(CN3C(=O)c4cccc5cccc(c45)C3=O)CC2)c1 (stereo not given), the EC50 [6] was 4.42 µM (active) and the EC50 [7] was 4.8 µM (active).

In the case of N#CC1=C(N)Oc2cc(O)ccc2C1C1CCCCC1 (stereo not given), the EC50 [6] is reported as 12.1 µM (active) and the EC50 [7] is reported as 13.2 µM (active).

For CCOc1cc(C(=O)NCC(C)(C)CNC(=O)c2cc(OCC)c(OCC)c(OCC)c2)cc(OCC)c1OCC, the CC50 [8] was 27.7 µM (active).

For O=C(COC(=O)CC1c2ccccc2CCN1S(=O)(=O)c1ccccc1)Nc1ccccc1 (stereo not given), the IC50 [9] was 8.09 µM (not active).

With CN(C)c1ccc(/C=N/N2CCN(Cc3ccccc3Cl)CC2)cc1 the IC50 [1] was 69.6 µM (active).

For Cc1ccccc1N1C(=O)C(Oc2ccc(Cl)cc2)C1CNCCCOC(C)C (stereo not given), the EC50 [2] was 27 µM (active), the EC50 [3] was > 120 µM (not active) and the EC50 [4] was 119 µM (active).

With Cc1ccnc(NC(=O)CCCOc2ccc(Cl)cc2C)c1 the IC50 [9] was 0.444 µM (not active).

With O=[N+]([O-])c1cc(C(F)(F)F)ccc1NCCN=C(S)Nc1ccc(Cl)cc1 the EC50 [10] was 7.05 µM (active), the AC50 [11] was 3.04 µM (active) and the EC50 [6] was 11.7 µM (active). The EC50 (Streptococcus) was 7.65 µM (active) and the EC50 [7] was 14.9 µM (active).

For OC(COc1ccc2cc(Br)ccc2c1)CN1CCCC1 (stereo not given), the EC50 [12] was 11.5 µM (active), the EC50 [13] was 3.4 µM (active) and the EC50 [6] was 17 µM (active). For the same molecule, the EC50 [7] was 15.6 µM (active).

With CC1=CC(C)(C)Nc2ccccc21 the EC50 [12] was > 60 µM (not active), the EC50 [13] was 4.5 µM (active) and the EC50 [2] was > 120 µM (not active). The EC50 [3] was > 120 µM (not active) and the EC50 [4] was > 120 µM (not active).

For Nc1ccc(S(=O)(=O)Nc2cnc3ccccc3n2)cc1 [SULFAQUINOXALINE], the AC50 (Cytochrome P450 2C9) was 3.98 µM (inconclusive).

In the case of C=CCNc1cnn(-c2ccc(C)cc2)c(=O)c1Sc1ccc(C)cc1, the IC50 [9] is reported as > 50 µM (not active).

With O=C(N/N=C/c1ccc(O)cc1)c1ccc(COc2cc(Cl)ccc2Cl)o1 the AC50 (Cytochrome P450 2C9) was 6.31 µM (inconclusive).

With CC(=O)c1nn(-c2cccc(Br)c2)cc1C(=O)c1ccc(C)cc1 the EC50 [5] was > 150 µM (inactive).

For C/C(=N\Nc1ccc([N+](=O)[O-])cc1)c1ccc(N)cc1, the IC50 [1] was 109 µM (active).

For Cc1cccc(NC(=O)Nc2cccc(C#N)c2)n1, the CC50 [8] was > 50 µM (active).

In the case of CCCCc1nc2ccccc2c(NC(=O)CN2CCN(C)CC2)c1CCC, the IC50 [1] is reported as 50.3 µM (active).

For CCOC(=S)SCC(=O)Nc1nc(-c2ccc(Br)cc2)cs1, the AC50 [11] was 0.722 µM (active), the EC50 [2] was 8.41 µM (active) and the EC50 [3] was 5.28 µM (active). The EC50 [4] was 8.99 µM (active).

For Cc1cc(N)n(-c2ccc3ccccc3c2)n1, the AC50 (Cytochrome P450 2C9) was 35.5 µM (inconclusive).

For Cc1ccc(N2NC3(CCN(C(N)=O)CC3)NC2=O)cc1, the EC50 [5] was 28.6 µM (active).

With C=CCn1c(SCC(C)=O)nc2scc(-c3ccc(C)o3)c2c1=O the CC50 [8] was 13.5 µM (active).

In the case of Oc1c([C@H](Nc2ccccn2)c2ccccc2)ccc2cccnc12, the AC50 (Cytochrome P450 2C9) is reported as 6.31 µM (inconclusive).

With Cc1cccc(Oc2ccc(S(=O)(=O)N3CCCCC3)cc2N)c1 the IC50 [9] was 11.2 µM (not active).

In the case of CCc1ccc2c(c1)c1nnc(NN)nc1n2CC, the EC50 [6] is reported as 30.8 µM (active) and the EC50 [7] is reported as 31.1 µM (active).

With FC(F)(F)c1cccc(N2CCC(/N=C/N3CCCCCC3)=N2)c1 the IC50 [1] was 56.4 µM (active).

For N#Cc1cc([N+](=O)[O-])ccc1NC(=O)COC(=O)C12CC3CC(CC(C3)C1)C2, the IC50 [9] was 14.4 µM (not active).

For COc1ccc2cc(Br)ccc2c1CC(=O)NC1CC(C)(C)NC(C)(C)C1, the EC50 [6] was 20.4 µM (active) and the EC50 [7] was 20.8 µM (active).

For O=C(C1=C[C@H](c2ccc(C(F)(F)F)cc2)C[C@H](OCc2ccc(CO)cc2)O1)N1CCCCCCC1, the IC50 [9] was 14.8 µM (not active).

With CCOc1ccc(C(=O)C[n+]2ccccc2C)cc1 the EC50 [2] was > 120 µM (not active) and the EC50 [3] was > 120 µM (not active).

With COc1ccc(Br)cc1CN1CCN(C(=O)c2ccc(F)cc2)CC1 the IC50 [1] was 212 µM (active).

With C/C(=N\NC(=O)COc1ccc(C(C)(C)C)cc1)c1ccccc1 the IC50 [9] was 5.74 µM (not active).

In the case of Oc1ccc(Cl)cc1-c1cc(C(F)(F)C(F)F)nc(-c2ccccc2)n1, the EC50 [2] is reported as > 120 µM (not active), the EC50 [3] is reported as > 120 µM (not active) and the EC50 [4] is reported as > 120 µM (not active).

For COc1ccc(C2/C=C\CN(C(=O)Nc3ccc(C(F)(F)F)cc3)CC(=O)N2Cc2ccc(F)cc2)cc1 (stereo not given), the AC50 (INS1) was 6.64 µM (active), the EC50 [2] was 10.2 µM (active) and the EC50 [3] was 10.8 µM (active). For the same molecule, the EC50 [4] was > 120 µM (not active).

With O=c1c2ccccc2nc(CSc2nnnn2-c2ccccc2)n1-c1ccccc1 the EC50 [6] was 18.1 µM (active) and the EC50 [7] was 17.6 µM (active).

For Cc1nc(C(=O)O)nn1-c1ccc([N+](=O)[O-])cc1, the EC50 [2] was > 120 µM (not active), the EC50 [3] was > 120 µM (not active) and the EC50 [4] was 118 µM (active).
